Test results reported in ChEMBL document CHEMBL4806960, “Inhibitors of GPR174 and Uses Thereof” (2020).
pEC50: −log10 of the molar value. Each block holds one compound with its values, some of them ahead of it. Activity calls are given as the source filed them. The calls are words filed in the database; no cut-off is given here.

What was measured:
[1] = biological target: T1, Probable G-protein coupled receptor 174 (Homo sapiens, UniProt Q9BXC1); assay: Allosteric modulator activity at human GPR174 expressed in cells assessed as inhibition of CRE-luc reporter activity by measuring decrease in Gs-protein signalling activity relative to control; assay type: functional, cell-based; conditions: filed as […] allosteric modulator
T1 sequence (Q9BXC1 whole entry): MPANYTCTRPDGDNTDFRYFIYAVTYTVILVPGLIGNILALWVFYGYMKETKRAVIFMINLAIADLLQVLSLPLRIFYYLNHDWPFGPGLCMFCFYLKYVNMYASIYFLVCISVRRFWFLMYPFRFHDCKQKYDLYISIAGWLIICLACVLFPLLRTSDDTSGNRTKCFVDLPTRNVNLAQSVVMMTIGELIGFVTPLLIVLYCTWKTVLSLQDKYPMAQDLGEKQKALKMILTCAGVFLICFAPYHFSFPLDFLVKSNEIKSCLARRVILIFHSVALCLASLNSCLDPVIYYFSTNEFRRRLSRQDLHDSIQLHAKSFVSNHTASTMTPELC

[2] = biological target: T1, Probable G-protein coupled receptor 174; assay: Inhibition of GPR174 (unknown origin) in cells assessed as incorporation of nuclear localization sequence into transmembrane protein by cellular redistribution assay; assay type: functional
[3] = biological target: T1, Probable G-protein coupled receptor 174; assay: Antagonist activity at human GPR174 expressed in cells assessed as inhibition of CRE-luc reporter activity by measuring decrease in Gs-protein signalling activity relative to control; assay type: functional, cell-based; conditions: filed as antagonist
[4] = biological target: T1, Probable G-protein coupled receptor 174; assay: Inhibition of human GPR174 in anti-CD3/antiCD28-stimulated human PBMC assessed as increase in IL-2 level measured after 2 days by ELISA; assay type: functional, tissue-based; conditions: time 2.0 day
[5] = biological target: T1, Probable G-protein coupled receptor 174; assay: Inverse agonist activity at human GPR174 expressed in cells assessed as inhibition of CRE-luc reporter activity by measuring decrease in Gs-protein signalling activity relative to control; assay type: functional, cell-based
[6] = biological target: T1, Probable G-protein coupled receptor 174; assay: Inhibition of human GPR174 in anti-CD3/antiCD28-stimulated human PBMC assessed as increase in IL-6 production at 10 uM measured after 2 days relative to control; assay type: functional, tissue-based; conditions: time 2.0 day
[7] = biological target: T1, Probable G-protein coupled receptor 174; assay: Inhibition of human GPR174 in anti-CD3/antiCD28-stimulated human PBMC assessed as non-T cell cell population at 10 uM measured after 2 days relative to control; assay type: functional, tissue-based; set-up: scale not given: the % may be the effect or the level left; conditions: time 2.0 day
[8] = biological target: T1, Probable G-protein coupled receptor 174; assay: Inhibition of human GPR174 in anti-CD3/antiCD28-stimulated human PBMC assessed as reduction in natural Treg cells (FoxP3+Helios+) at 100 uM measure after 7 days by flow cytometry; assay type: functional, cell-based; conditions: time 7.0 day
[9] = biological target: T1, Probable G-protein coupled receptor 174; assay: Inhibition of human GPR174 in anti-CD3/antiCD28-stimulated human regulatory T cells assessed as reduction in CTLA4 expression relative to control; assay type: functional, tissue-based; conditions: T cell, dose 0.19-6 µM
[10] = biological target: T1, Probable G-protein coupled receptor 174; assay: Inhibition of human GPR174 in anti-CD3/antiCD28-stimulated human PBMC assessed as reduction in AREG expression in CD4+ T cell relative to control; assay type: functional, tissue-based
[11] = biological target: T1, Probable G-protein coupled receptor 174; assay: Inhibition of GPR174 in anti-CD3/antiCD28-stimulated human PBMC assessed as increase in IFNgamma level measured after 2 days by ELISA; assay type: functional, tissue-based; conditions: time 2.0 day
[12] = biological target: Probable G-protein coupled receptor 174 (Mus musculus) (UniProt Q3U507); assay: Inhibition of mouse GPR174 in anti-CD3/antiCD28-stimulated mouse splenocytes assessed as increase in IL-2 production at 10 uM measured after 2 days; assay type: functional, tissue-based; conditions: Splenocyte, time 2.0 day
Chain of Probable G-protein coupled receptor 174 (Mus musculus) (Q3U507 whole entry): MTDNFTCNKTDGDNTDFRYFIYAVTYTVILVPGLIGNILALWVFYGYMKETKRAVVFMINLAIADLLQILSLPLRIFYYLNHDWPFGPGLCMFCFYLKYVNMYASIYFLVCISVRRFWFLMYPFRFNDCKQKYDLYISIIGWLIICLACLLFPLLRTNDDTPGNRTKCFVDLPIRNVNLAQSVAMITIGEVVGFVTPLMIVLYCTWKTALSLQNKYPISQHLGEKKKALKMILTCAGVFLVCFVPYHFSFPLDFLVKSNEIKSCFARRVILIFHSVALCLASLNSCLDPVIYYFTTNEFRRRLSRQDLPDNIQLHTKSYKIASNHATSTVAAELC

[13] = biological target: T1, Probable G-protein coupled receptor 174; assay: Inhibition of human GPR174 in anti-CD3/antiCD28-stimulated human PBMC assessed as CD4+ cell population at 10 uM measured after 2 days relative to control; assay type: functional, tissue-based; set-up: scale not given: the % may be the effect or the level left; conditions: time 2.0 day
[14] = biological target: T1, Probable G-protein coupled receptor 174; assay: Inhibition of human GPR174 in anti-CD3/antiCD28-stimulated human PBMC assessed as reduction in natural Treg cells (FoxP3+Helios+) measure after 7 days by ELISA; assay type: functional, cell-based; conditions: dose 3-30 µM, time 7.0 day
[15] = biological target: T1, Probable G-protein coupled receptor 174; assay: Inhibition of human GPR174 in anti-CD3/antiCD28-stimulated human PBMC assessed as increase in TNFalpha production at 10 uM measured after 2 days relative to control; assay type: functional, tissue-based; conditions: time 2.0 day
[16] = biological target: T1, Probable G-protein coupled receptor 174; assay: Inhibition of human GPR174 in anti-CD3/antiCD28-stimulated human PBMC assessed as reduction in TGIT expression in CD8+ T cell relative to control; assay type: functional, tissue-based
Splenocyte = assay: Effect on IL-2 production in mouse GPR174 knock out splenocytes at 10 uM measured after 2 days; assay type: functional, cell-based; conditions: time 2.0 day
[17] = biological target: T1, Probable G-protein coupled receptor 174; assay: Inhibition of human GPR174 in anti-CD3/antiCD28-stimulated human PBMC assessed as increase in natural Treg cells […] at 100 uM measure after 7 days by flow cytometry; assay type: functional, cell-based; conditions: time 7.0 day
[18] = biological target: T1, Probable G-protein coupled receptor 174; assay: Inhibition of human GPR174 in anti-CD3/antiCD28-stimulated human PBMC assessed as reduction in CTLA4 expression relative to control; assay type: functional, tissue-based; conditions: dose 0.19-6 µM
[19] = biological target: T1, Probable G-protein coupled receptor 174; assay: Inhibition of human GPR174 in anti-CD3/antiCD28-stimulated human PBMC assessed as increase in IL-2 production measured after 2 days; assay type: functional, tissue-based; conditions: dose 3-60 µM, time 2.0 day
[20] = biological target: T1, Probable G-protein coupled receptor 174; assay: Inhibition of human GPR174 in anti-CD3/antiCD28-stimulated CD45RA-FOXP+ human PBMC assessed as reduction in CTLA4 expression measured in memory Treg cells relative to control; assay type: functional, cell-based; conditions: dose 0.19-6 µM
[21] = biological target: T1, Probable G-protein coupled receptor 174; assay: Inhibition of human GPR174 in anti-CD3/antiCD28-stimulated human PBMC assessed as increase in IL-10 production at 10 uM measured after 2 days relative to control; assay type: functional, tissue-based; conditions: time 2.0 day
[22] = biological target: T1, Probable G-protein coupled receptor 174; assay: Inhibition of human GPR174 in anti-CD3/antiCD28-stimulated human PBMC assessed as reduction in PD-L1 expression in CD4+ T cell relative to control; assay type: functional, tissue-based
[23] = biological target: T1, Probable G-protein coupled receptor 174; assay: Inhibition of human GPR174 in anti-CD3/antiCD28-stimulated human PBMC assessed as increase in IFNgamma production at 10 uM measured after 2 days relative to control; assay type: functional, tissue-based; conditions: time 2.0 day
[24] = biological target: T1, Probable G-protein coupled receptor 174; assay: Inhibition of human GPR174 in anti-CD3/antiCD28-stimulated human PBMC assessed as CD8+ cell population at 10 uM measured after 2 days relative to control; assay type: functional, tissue-based; set-up: scale not given: the % may be the effect or the level left; conditions: time 2.0 day
[25] = biological target: T1, Probable G-protein coupled receptor 174; assay: Inhibition of human GPR174 in anti-CD3/antiCD28-stimulated CD45RA-FOXP+ human PBMC assessed as reduction in CTLA4 expression measured in non-memory Treg cells relative to control; assay type: functional, cell-based; conditions: dose 0.19-6 µM

Activity [1]: Active | pEC50 [2]: 6.30 | Activity [3]: Active
Structure (SMILES): Cc1cc(Cc2ccc(NC(=O)c3cccs3)c(C)c2)ccc1NC(=O)c1cccs1

Activity [1]: Active | Activity [3]: Active
Structure (SMILES): Cc1ccccc1Nc1nnc(-c2ccc(C)c(S(N)(=O)=O)c2)c2ccccc12

Ratio [5]: 3.7
Structure (SMILES): C=C(C)COc1ccc(NC(=O)Nc2ccccc2)cc1

Activity [1]: Active | Activity [3]: Active
Structure (SMILES): Cc1ccc(-c2nnc(Nc3ccccc3)c3ccccc23)cc1S(N)(=O)=O

Activity [1]: Active | Activity [3]: Active
Structure (SMILES): O=C(N/N=C/c1cc(Cl)ccc1O)c1ccncc1

Second part, the compound before the results:

Structure (SMILES): O=C(c1ccccc1)N1CCN(c2cc(N3CCCCC3)c(F)cc2[N+](=O)[O-])CC1
Activity [4]: Dose-Dependent Effect

Structure (SMILES): CC(=O)c1ccc(N2CCN(C(=O)c3ccc(F)cc3)CC2)c(F)c1
Activity [1]: Active | Activity [3]: Active

Structure (SMILES): CCCC(=O)c1ccc(N2CCN(S(=O)(=O)c3ccc(C)cc3)CC2)c(F)c1
Activity [3]: Active

Structure (SMILES): Cc1cc(C(=O)N/N=C/c2cc(Br)ccc2O)c(C)o1
Activity [1]: Active | Activity [3]: Active

Structure (SMILES): CCOc1ccc(C2C3=C(CCCC3=O)NC3=C2C(=O)c2ccccc23)cn1 (stereo not given)
Ratio [5]: 3

Structure (SMILES): CC1CCN(c2cc(N3CCN(S(=O)(=O)c4ccccc4)CC3)c([N+](=O)[O-])cc2F)CC1
Activity [6]: Active | Activity [7]: 33.9% | Activity [8]: Active | Activity [9]: Dose-Dependent Effect | Activity [10]: Dose-Dependent Effect | Activity [11]: Active | Activity [12]: Active | Activity [13]: 46.2% | Activity [14]: Dose-Dependent Effect | Activity [15]: Active | Activity [16]: Dose-Dependent Effect | Activity (Splenocyte): inactive | Activity [17]: Active | Activity [18]: Dose-Dependent Effect | pEC50 [2]: 6.22 | Activity [4]: Dose-Dependent Effect | Activity [19]: Dose-Dependent Effect | Activity [20]: Active | Activity [21]: Active | Activity [22]: Dose-Dependent Effect | Activity [23]: Active | Activity [24]: 17.1% | Activity [25]: Active
